Experimental data reported in patent US7977371B2, “Pyrrole derivative having ureido group and aminocarbonyl group as substituents” (Santen Pharmaceutical Co., Ltd., priority 2007, dated 2011).
Structures can show the parent of a compound that is named as a salt.

Test system: TNF-α-induced IL-6 production in normal human skin fibroblast-derived CCD-1059Sk cells
Assay: Test for measurement of inhibitory activity against TNF-α-induced IL-6 production
Assay type: cell-based
Settings: Homo sapiens, CCD-1059Sk, 16 h, test compound at 10 μM, TNF-α stimulation 16 hours, inhibition ratio of 100% or more is indicated as 100%
Protocol: 1. Test for Measurement of Inhibitory Activity Against IL-6 Production
An inhibitory effect on TNF-α-induced IL-6 production in normal human skin fibroblast-derived CCD-1059Sk cells (ATCC No. CRL-2072) was evaluated. The amount of IL-6 was determined by the homogeneous time-resolved fluorescence method using HTRF™ Human IL-6 kit (Cat. No. 62IL6PEB, manufactured by CIS-Bio international, Inc.). Specific test methods will be described below.
(Preparation of Test Compound Solution)
After a test compound was dissolved in dimethyl sulfoxide, the resulting solution was diluted with D-MEM medium containing 0.1% heat-inactivated fetal bovine serum, 0.1 mM MEM non-essential amino acid solution, 100 U/mL penicillin and 100 μg/mL streptomycin (hereinafter referred to as “medium”), whereby a 40 μM test compound solution was prepared.
(Test Method and Measurement Method)
1) CCD-1059Sk cells prepared at a density of 3×10^5 cells/mL were inoculated in a 384-well plate in an amount of 10 μL per well such that the cell density was 3×10^3 cells/well.
2). After the plate was incubated at 37° C. for several hours in a CO2 incubator, 5 μL of the test compound was added to each well.
3) After the plate was incubated at 37° C. for 1 hour in a CO2 incubator, 5 μL of a 40 ng/mL TNF-α solution was added to each well.
4) After the plate was incubated at 37° C. for 16 hours in a CO2 incubator, 10 μL of a cryptate-labeled anti-IL-6 antibody and an XL665-labeled anti-IL-6 antibody containing potassium fluoride was added to each well.
5) After the plate was incubated at room temperature for several hours, a fluorescence intensity ratio (665 nm/620 nm) was determined for each well using a multimode plate reader Analyse™ HT (manufactured by Molecular Device Corporation) and Criterion Host software version 2.00 (manufactured by Molecular Device Corporation), and then, the amount of IL-6 was calculated.
6) The same procedures as in the above 1) to 5) were performed except that 0.4% dimethyl sulfoxide was added in place of the test compound, and the obtained result was designated as the control.
7) The same procedures as in the above 1) to 5) were performed except that 0.4% dimethyl sulfoxide and the medium were added in place of the test compound and the TNF-α solution, respectively, and the obtained result was designated as the background.
(Calculation Formula of IL-6 Production Inhibition Ratio)
An IL-6 production inhibition ratio (%) was calculated from the following formula. IL-6 Production Inhibition Ratio (%)=100×{1−[(Amount of IL-6 for Test Compound)−(Amount of IL-6 for Background)/(Amount of IL-6 for Control)−(Amount of IL-6 for Background)]} (Evaluation Results)

| Compound | inhibition at 10 µM [%] |
| --- | --- |
| CN(CCO)CCOc1ccccc1-c1cc(C(N)=O)c(NC(N)=O)[nH]1 [Compound 8-11] | 96 |
| NC(=O)Nc1[nH]c(-c2cccs2)cc1C(N)=O [Compound 1-16, 2-Aminocarbonylamino-5-(thiophen-2-yl) pyrrole-3-carboxamide] | 94 |
| Cc1c(-c2ccc(Br)cc2)[nH]c(NC(N)=O)c1C(N)=O [Compound 1-21, 2-Aminocarbonylamino-5-(4-bromophenyl)-4-methylpyrrole-3-carboxamide] | 88 |
| CN1CCN(CCOc2ccccc2-c2cc(C(N)=O)c(NC(N)=O)[nH]2)CC1 [Compound 8-2] | 77 |
| CNCCOc1ccccc1-c1cc(C(N)=O)c(NC(N)=O)[nH]1 [Compound 20-1, 2-Aminocarbonylamino-5-[2-(2-methylaminoethyloxy)phenyl]pyrrole-3-carboxamide hydrochloride] | 95 |
| CSCc1cccc(-c2cc(C(N)=O)c(NC(N)=O)[nH]2)c1 [Compound 15-1, 2-Aminocarbonylamino-5-(3-methylthiomethylphenyl)pyrrole-3-carboxamide] | 98 |
| NC(=O)Nc1[nH]c(-c2cc(Cl)ccc2O)cc1C(N)=O [Compound 3-4, 2-Aminocarbonylamino-5-(5-chloro-2-hydroxyphenyl)pyrrole-3-carboxamide] | 100 |
| CN1CCN(CCOc2ccc(Cl)cc2-c2cc(C(N)=O)c(NC(N)=O)[nH]2)CC1 [Compound 8-15] | 98 |
| NC(=O)Nc1[nH]c(-c2cc(F)ccc2OCCCO)cc1C(N)=O [Compound 4-35, 2-Aminocarbonylamino-5-[5-fluoro-2-(3-hydroxypropyloxy)phenyl]pyrrole-3-carboxamide] | 100 |
| C#Cc1cccc(-c2cc(C(N)=O)c(NC(N)=O)[nH]2)c1 [Compound 11-1, 2-Aminocarbonylamino-5-(3-ethynylphenyl)pyrrole-3-carboxamide] | 100 |
| C=Cc1ccc(-c2cc(C(N)=O)c(NC(N)=O)[nH]2)cc1 [Compound 9-1, 2-Aminocarbonylamino-5-(4-vinylphenyl)pyrrole-3-carboxamide] | 100 |
| NC(=O)Nc1[nH]c(-c2cccc(Cl)c2)c(CO)c1C(N)=O [Compound 18-1, 2-Aminocarbonylamino-5-(3-chlorophenyl)-4-(hydroxymethyl)pyrrole-3-carboxamide] | 90 |
| NC(=O)Nc1[nH]c(-c2cc(F)ccc2O)cc1C(N)=O [Compound 3-3, 2-Aminocarbonylamino-5-(5-fluoro-2-hydroxyphenyl)pyrrole-3-carboxamide] | 100 |
| NC(=O)Nc1[nH]c(-c2ccc(-c3ccccc3)cc2)cc1C(N)=O [Compound 1-5, 2-Aminocarbonylamino-5-(4-biphenyl) pyrrole-3-carboxamide] | 67 |
| NC(=O)Nc1[nH]c(-c2ccccc2Cl)cc1C(N)=O [Compound 1-40, 2-Aminocarbonylamino-5-(2-chlorophenyl) pyrrole-3-carboxamide] | 99 |
| NC(=O)Nc1[nH]c(-c2cc(F)c(F)cc2F)cc1C(N)=O [Compound 1-52, 2-Aminocarbonylamino-5-(2,4,5-trifluorophenyl) pyrrole-3-carboxamide] | 93 |
| NC(=O)Nc1[nH]c(-c2cccc([N+](=O)[O-])c2)cc1C(N)=O [Compound 1-6, 2-Aminocarbonylamino-5-(3-nitrophenyl) pyrrole-3-carboxamide] | 92 |
| NC(=O)Nc1[nH]c(-c2ccccc2OCC2CC2)cc1C(N)=O [Compound 4-23, 2-Aminocarbonylamino-5-(2-cyclopropylmethyloxyphenyl) pyrrole-3-carboxamide] | 97 |
| Cc1ccc(-c2cc(C(N)=O)c(NC(N)=O)[nH]2)cc1 [Compound 1-11, 2-Aminocarbonylamino-5-(4-methylphenyl) pyrrole-3-carboxamide] | 88 |
